Values of other authors in patent US20130177904A1, “ARNT ISOFORM 3 AS A PREDICTOR OF AMINOFLAVONE RESPONSIVENESS IN CANCER CELLS” (UNIVERSITY OF MARYLAND, BALTIMORE, priority 2010, published 2013).

System: nonspecific plasma esterases
Conditions: by nonspecific plasma esterases; cited from earlier work

## CS(=O)(=O)O.Cc1c(F)c(N)c2c(=O)cc(-c3ccc(NC(=O)[C@@H](N)CCCCN)c(F)c3)oc2c1F [AFP-464]
  conversion to AF in plasma: rapid conversion to AF
